Reference: PubChem BioAssay AID1963962 (Molecular Pharmacology Branch, DTP, NCI, 2024)
pIC50: −log10 of the molar value. Each block holds one compound with its values, some of them ahead of it.

Test system: 967376-340-R-J2-PDC multicell spheroid viability
Assay: Anticancer human tumor 967376-340-R-J2-PDC patient-derived colon adenocarcinoma cell line growth inhibition [PI3K]
Conditions: for pIC50: curve of first compound; for viability, T/C: stronger effect = lower value
Procedure, shortened: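 Viability of mixed-cell spheroids was determined after exposure to pairwise combinations, one partner being inavolisib, alpelisib, duvelisib or copanlisib. Highest tested concentration matched clinical Cmax where known and 10 microM where not, descending in half-log steps.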

[1] = second compound 0.00316 µM, first compound 0.0316 µM
[2] = second compound 0.00316 µM, first compound 0.1 µM
[3] = second compound 0.01 µM, first compound 0.0316 µM
[4] = second compound 0.01 µM, first compound 0.1 µM
[5] = second compound 0.0316 µM, first compound 0.0316 µM
[6] = second compound 0.0316 µM, first compound 0.1 µM
[7] = second compound 0.1 µM, first compound 0.0316 µM
[8] = second compound 0.1 µM, first compound 0.1 µM
[9] = second compound 0.316 µM, first compound 0.0316 µM
[10] = second compound 0.316 µM, first compound 0.1 µM
[11] = second compound 1 µM, first compound 0.0316 µM
[12] = second compound 1 µM, first compound 0.1 µM
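Note: spheroids exposed to agents for 7 days before read-out.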
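Throughout, for viability, T/C: luminescence used as surrogate of cell viability.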

pIC50 (second compound 0.00316 µM): < 7.00 | pIC50 (second compound 0.01 µM): 7.01 | pIC50 (second compound 0.0316 µM): 7.48 | pIC50 (second compound 0.1 µM): 7.75 | pIC50 (second compound 0.316 µM): 9.27 | pIC50 (second compound 1 µM): > 9.50
SMILES: CC(C)n1nc(-c2ccc3oc(N)nc3c2)c2c(N)ncnc21 + COc1c(OCCCN2CCOCC2)ccc2c3n(c(=NC(=O)c4cnc(N)nc4)nc12)CCN3
viability, T/C (second compound 0.00316 µM, first compound 0.000316 µM): 85.7% | viability, T/C (second compound 0.00316 µM, first compound 0.001 µM): 106% | viability, T/C (second compound 0.00316 µM, first compound 0.00316 µM): 88.7% | viability, T/C (second compound 0.00316 µM, first compound 0.01 µM): 74.1% | viability, T/C [1]: 76.5% | viability, T/C [2]: 54.8% | viability, T/C (second compound 0.01 µM, first compound 0.000316 µM): 109% | viability, T/C (second compound 0.01 µM, first compound 0.001 µM): 97.2% | viability, T/C (second compound 0.01 µM, first compound 0.00316 µM): 81% | viability, T/C (second compound 0.01 µM, first compound 0.01 µM): 91.1% | viability, T/C [3]: 67.3% | viability, T/C [4]: 47.1% | viability, T/C (second compound 0.0316 µM, first compound 0.000316 µM): 85.9% | viability, T/C (second compound 0.0316 µM, first compound 0.001 µM): 83.9% | viability, T/C (second compound 0.0316 µM, first compound 0.00316 µM): 65.4% | viability, T/C (second compound 0.0316 µM, first compound 0.01 µM): 63.8% | viability, T/C [5]: 50% | viability, T/C [6]: 39.9% | viability, T/C (second compound 0.1 µM, first compound 0.000316 µM): 58% | viability, T/C (second compound 0.1 µM, first compound 0.001 µM): 49.5% | viability, T/C (second compound 0.1 µM, first compound 0.00316 µM): 53.9% | viability, T/C (second compound 0.1 µM, first compound 0.01 µM): 51.5% | viability, T/C [7]: 47.9% | viability, T/C [8]: 27% | viability, T/C (second compound 0.316 µM, first compound 0.000316 µM): 61.5% | viability, T/C (second compound 0.316 µM, first compound 0.001 µM): 36.3% | viability, T/C (second compound 0.316 µM, first compound 0.00316 µM): 38% | viability, T/C (second compound 0.316 µM, first compound 0.01 µM): 41.4% | viability, T/C [9]: 37.2% | viability, T/C [10]: 21.9% | viability, T/C (second compound 1 µM, first compound 0.000316 µM): 34.9% | viability, T/C (second compound 1 µM, first compound 0.001 µM): 28.2% | viability, T/C (second compound 1 µM, first compound 0.00316 µM): 32.1% | viability, T/C (second compound 1 µM, first compound 0.01 µM): 29.8% | viability, T/C [11]: 31.6% | viability, T/C [12]: 26.5%

pIC50 (second compound 0.00316 µM): < 5.00 | pIC50 (second compound 0.01 µM): < 5.00 | pIC50 (second compound 0.0316 µM): 5.10 | pIC50 (second compound 0.1 µM): 5.92 | pIC50 (second compound 0.316 µM): > 7.50 | pIC50 (second compound 1 µM): > 7.50
SMILES: CC1(C)CCC(CN2CCN(c3ccc(C(=O)NS(=O)(=O)c4ccc(NCC5CCOCC5)c([N+](=O)[O-])c4)c(Oc4cnc5[nH]ccc5c4)c3)CC2)=C(c2ccc(Cl)cc2)C1 + COc1c(OCCCN2CCOCC2)ccc2c3n(c(=NC(=O)c4cnc(N)nc4)nc12)CCN3
viability, T/C [1]: 92.6% | viability, T/C [2]: 82% | viability, T/C (second compound 0.00316 µM, first compound 0.316 µM): 94.8% | viability, T/C (second compound 0.00316 µM, first compound 1 µM): 108% | viability, T/C (second compound 0.00316 µM, first compound 3.16 µM): 81.6% | viability, T/C (second compound 0.00316 µM, first compound 10 µM): 64.3% | viability, T/C [3]: 83.2% | viability, T/C [4]: 87.6% | viability, T/C (second compound 0.01 µM, first compound 0.316 µM): 82.9% | viability, T/C (second compound 0.01 µM, first compound 1 µM): 75.8% | viability, T/C (second compound 0.01 µM, first compound 3.16 µM): 76.4% | viability, T/C (second compound 0.01 µM, first compound 10 µM): 55.8% | viability, T/C [5]: 76.9% | viability, T/C [6]: 73.6% | viability, T/C (second compound 0.0316 µM, first compound 0.316 µM): 63.6% | viability, T/C (second compound 0.0316 µM, first compound 1 µM): 67.2% | viability, T/C (second compound 0.0316 µM, first compound 3.16 µM): 62.6% | viability, T/C (second compound 0.0316 µM, first compound 10 µM): 46.1% | viability, T/C [7]: 56.6% | viability, T/C [8]: 67% | viability, T/C (second compound 0.1 µM, first compound 0.316 µM): 44.2% | viability, T/C (second compound 0.1 µM, first compound 1 µM): 48.5% | viability, T/C (second compound 0.1 µM, first compound 3.16 µM): 54.6% | viability, T/C (second compound 0.1 µM, first compound 10 µM): 39.5% | viability, T/C [9]: 35.4% | viability, T/C [10]: 44.6% | viability, T/C (second compound 0.316 µM, first compound 0.316 µM): 31.2% | viability, T/C (second compound 0.316 µM, first compound 1 µM): 40% | viability, T/C (second compound 0.316 µM, first compound 3.16 µM): 37.4% | viability, T/C (second compound 0.316 µM, first compound 10 µM): 21.4% | viability, T/C [11]: 48.5% | viability, T/C [12]: 28.9% | viability, T/C (second compound 1 µM, first compound 0.316 µM): 35.2% | viability, T/C (second compound 1 µM, first compound 1 µM): 24.8% | viability, T/C (second compound 1 µM, first compound 3.16 µM): 30.9% | viability, T/C (second compound 1 µM, first compound 10 µM): 27.8%
